Data taken from patent US12064516B2, “Pharmaceutical formulations and uses thereof” (Aldeyra Therapeutics, Inc., priority 2020, dated 2024).
Like-named read-outs stand apart in the source and are kept apart here.

Experiment: Pharmacokinetics of compound I-1 in the dog by intravenous, oral gavage and oral capsule routes
Format: in vivo, beagle dogs
Conditions: male, beagle, dog, plasma; for concentration at 4 h / concentration at 8 h / concentration at 12 h / concentration at 0.25 h / concentration at 0.5 h / concentration at 1 h / concentration at 2 h: read-out: Concentration at time point; for bioavailability: read-out: BioA (bioavailability)
Protocol: A pharmacokinetic study was conducted to compare the bioavailability of capsule and suspension oral formulations vs. an intravenous formulations.
The standard curve was prepared from 1 to 2,000 ng/mL. QC samples were prepared at […]. Dilution QCs were prepared at 10-fold dilution. Deuterated (d6) I-1 (compound 1-7) was used as an internal standard. A 50 μL aliquot of sample was added to 150 μL of cold internal standard in acetonitrile to effect protein precipitation. The resulting supernatants were analyzed by LCMS. Diluted sample data was utilized only for over-the-curve results.
Briefly, 9 male non-naïve beagle dogs were assigned in groups of 3 to 3 dose groups. Group 1 was dosed 3 mg/kg by the intravenous route in a vehicle of 20% sulfobutylether-β-cyclodextrin (SBECD). Group 2 was dosed 10 mg/kg by the oral gavage route in a vehicle of 0.5% methylcellulose (MC). Group 3 was dosed with 100 mg capsules.
The I-1 100 mg capsules are manufactured as a non-sterile spray dried, granulated powder blend. The blend is then filled into capsules for oral delivery. The capsules are packaged in high-density polyethylene bottles. The quantitative composition of the I-1 100 mg capsule is presented above in Table B.
Procedure: (PO) gavage: formulations will be administered via a rubber oral gavage tube followed by a 10 mL flush with drinking water. (PO) tablet: tablets will be administered orally by placing the tablet in the back of the throat followed by a 10 mL flush with water.
Frequency: Pre-dose, 5, 15, 30 min, 1, 2, 4, 8, and 12 hrs post-dose (IV); pre-dose, 15, 30 min, 1, 2, 4, 8, and 12 hrs post-dose (PO by gavage and PO by capsule).
Blood collection: each blood sample will be collected from the dog's jugular vein or other accessible vein via direct venepuncture, placed into a pre-labeled tube containing K2EDTA and kept on ice until centrifugation.
Plasma preparation and storage: Certifuged at 4 C at 3,000× for 5 mm. Stored in a freezer until analysed.
Pharmacokinetics package PKSolver2.0™ has been validated against WinNonLin™ as a tool for non-GLP studies and was used to process the pharmacokinetic data.
For each route, the average data were processed with non-compartmental, one compartment, and two compartment models. The models were assessed for goodness of fit and the accuracy of the model to assess the biphasic data, with either a) no weighting, b) 1/concentration observed, or c) 1/concentration observed squared. 1/concentration predicted, and 1/concentration predicted squared weightings were also assessed for best fit. […] The zeros were averaged with the 71.5 value for a resulting average of 23.8. For the In Group 2 (PO Gavage) subject 3 experienced 30 mL of emesis, so the dose assigned to that subject was 7.46. In all cases, the subjects were modelled individually, and the individual PK parameters were averaged to provide final parameters.
For group 1 (intravenous) the final model selected was a two compartment model with 1/concentration observed squared weighting.
For group 2 (oral gavage) the final model was a two compartment extravascular model with 1/concentration predicted squared weighting.
For group 3 (oral capsule) the final model was a one compartment extravascular model with a lag time and no weighting. […] The body weight of each animal was used to assign a mg/kg dose to each individual. Subject 1 was dosed at 7.69 mg/kg. Subject 2 was 6.94 mg/kg, and Subject 3 was 6.99 mg/kg.

[1] = oral, 7 mg/kg, Group 3: PO Capsule 7 mg/kg, Subject 1
[2] = oral, 7 mg/kg, Group 3: PO Capsule 7 mg/kg, Subject 2
[3] = oral, 7 mg/kg, Group 3: PO Capsule 7 mg/kg, Subject 3
[4] = oral, 7 mg/kg, Group 3: PO Capsule 7 mg/kg, Average
[5] = oral, 7.2 mg/kg, 100 mg Capsule, average dose 7.2 mg/kg, Average
[6] = po, 7.2 mg/kg, 100 mg Capsule, average dose 7.2 mg/kg, Average
[7] = po, 7.2 mg/kg, 100 mg Capsule, average dose 7.2 mg/kg, Subj1
[8] = po, 7.2 mg/kg, 100 mg Capsule, average dose 7.2 mg/kg, Subj2
[9] = po, 7.2 mg/kg, 100 mg Capsule, average dose 7.2 mg/kg, Subj3
[10] = po, 10 mg/kg, Group 2: PO Gavage 10 mg/kg, Average
[11] = po, 10 mg/kg, Group 2: PO Gavage 10 mg/kg, Subject 1
[12] = po, 10 mg/kg, Group 2: PO Gavage 10 mg/kg, Subject 2
[13] = po, 10 mg/kg, Group 2: PO Gavage 10 mg/kg, Subject 3
[14] = po, 10 mg/kg, Oral Gavage 0.5% Methylcellulose 10 mg/kg, Average
[15] = po, 10 mg/kg, Oral Gavage 0.5% Methylcellulose 10 mg/kg, Subj1
[16] = po, 10 mg/kg, Oral Gavage 0.5% Methylcellulose 10 mg/kg, Subj2
[17] = po, 10 mg/kg, Oral Gavage 0.5% Methylcellulose 10 mg/kg, Subj3

What does the source list for `CC(C)(O)c1nc2ccccc2cc1N` [I-1]?
concentration at 4 h [1]: 1070 ng/mL; concentration at 4 h [2]: 736 ng/mL; concentration at 4 h [3]: 1150 ng/mL; concentration at 8 h [4]: 223 ng/mL; concentration at 8 h [1]: 195 ng/mL; concentration at 8 h [2]: 147 ng/mL; concentration at 8 h [3]: 327 ng/mL; concentration at 12 h [4]: 94.5 ng/mL; concentration at 12 h [1]: 58.7 ng/mL; concentration at 12 h [2]: 58 ng/mL; concentration at 12 h [3]: 167 ng/mL; Tmax [5]: 2.37 h; bioavailability [5]: 83%; concentration at 0.25 h (oral, 100 mg, Group 3: PO Capsule 7 mg/kg, Average): 23.8 ng/mL; concentration at 0.25 h (oral, 100 mg, Group 3: PO Capsule 7 mg/kg, Subject 2): 71.5 ng/mL; AUC(0-inf) [6]: 8170 ng·h/mL; AUC(0-t) [6]: 8080 ng·h/mL; Cmax [6]: 1700 ng/mL; half-life [6]: 1.33 h; AUC(0-inf) [7]: 7350 ng·h/mL; AUC(0-t) [7]: 7240 ng·h/mL; Cmax [7]: 1390 ng/mL; Tmax [7]: 2.57 h; half-life [7]: 1.38 h; AUC(0-inf) [8]: 5610 ng·h/mL; AUC(0-t) [8]: 5490 ng·h/mL; Cmax [8]: 986 ng/mL; Tmax [8]: 2.37 h; half-life [8]: 1.49 h; AUC(0-inf) [9]: 11600 ng·h/mL; AUC(0-t) [9]: 11500 ng·h/mL; Cmax [9]: 2730 ng/mL; Tmax [9]: 2.16 h; half-life [9]: 1.1 h; concentration at 0.25 h [10]: 2480 ng/mL; concentration at 0.25 h [11]: 3360 ng/mL; concentration at 0.25 h [12]: 2760 ng/mL; concentration at 0.25 h [13]: 1310 ng/mL; concentration at 0.5 h [10]: 4320 ng/mL; concentration at 0.5 h [11]: 5400 ng/mL; concentration at 0.5 h [12]: 4290 ng/mL; concentration at 0.5 h [13]: 3260 ng/mL; concentration at 1 h [10]: 2700 ng/mL; concentration at 1 h [11]: 2970 ng/mL; concentration at 1 h [12]: 2610 ng/mL; concentration at 1 h [13]: 2520 ng/mL; concentration at 2 h [10]: 1420 ng/mL; concentration at 2 h [11]: 1890 ng/mL; concentration at 2 h [12]: 1470 ng/mL; concentration at 2 h [13]: 908 ng/mL; concentration at 4 h [10]: 787 ng/mL; concentration at 4 h [11]: 909 ng/mL; concentration at 4 h [12]: 909 ng/mL; concentration at 4 h [13]: 541 ng/mL; concentration at 8 h [10]: 157 ng/mL; concentration at 8 h [11]: 131 ng/mL; concentration at 8 h [12]: 233 ng/mL; concentration at 8 h [13]: 108 ng/mL; concentration at 12 h [10]: 45.1 ng/mL; concentration at 12 h [11]: 28.1 ng/mL; concentration at 12 h [12]: 59.1 ng/mL; concentration at 12 h [13]: 48.1 ng/mL; AUC(0-inf) [14]: 9550 ng·h/mL; AUC(0-t) [14]: 9360 ng·h/mL; Cmax [14]: 3560 ng/mL; Tmax [14]: 0.518 h; half-life [14]: 3.02 h; bioavailability [14]: 75%; AUC(0-inf) [15]: 11200 ng·h/mL; AUC(0-t) [15]: 11100 ng·h/mL; Cmax [15]: 4350 ng/mL; Tmax [15]: 0.459 h; half-life [15]: 2.85 h; AUC(0-inf) [16]: 10100 ng·h/mL; AUC(0-t) [16]: 9910 ng·h/mL; Cmax [16]: 3670 ng/mL; Tmax [16]: 0.46 h; half-life [16]: 2.13 h; AUC(0-inf) [17]: 7330 ng·h/mL; AUC(0-t) [17]: 7050 ng·h/mL; Cmax [17]: 2650 ng/mL; Tmax [17]: 0.635 h; half-life [17]: 4.08 h
